According to ChEMBL document CHEMBL1201862, “PubChem BioAssay data set” (2004):
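All cell lines were grown in 96-well plates and treated with compound for 48 hours. Here, GI50 denotes the concentration required for 50% inhibition of growth.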 Calls of active or inactive are those of the source. No stated cut-off is given here; in the data, active = GI50 up to about 1.1 µM and inactive = higher.

Legend:
Assay in all cases: NCI-60 cell line screen, 48 h
A549 = test system: A549
CAKI-1 = test system: CAKI-1
DMS-273 = test system: DMS-273
HOP-62 = test system: HOP-62
HOP-92 = test system: HOP-92
HT-29 = test system: HT-29
KM12 = test system: KM12
LOX IMVI = test system: LOX IMVI
LXFL 529 = test system: LXFL 529
MOLT-4 = test system: MOLT-4
NCI-H226 = test system: NCI-H226
NCI-H460 = test system: NCI-H460
OVCAR-4 = test system: OVCAR-4
OVCAR-5 = test system: OVCAR-5
SK-MEL-2 = test system: SK-MEL-2
SNB-75 = test system: SNB-75
UACC-62 = test system: UACC-62

Measured: GI50

CCOC(=O)C(C(=O)OCC)c1ccc([N+](=O)[O-])o1
inactive: A549 21.5 µM | CAKI-1 6.18 µM | DMS-273 18 µM | HOP-62 > 50 µM | HOP-92 6.62 µM | HT-29 14 µM | KM12 17.5 µM | LOX IMVI 3.17 µM | LXFL 529 3.6 µM | MOLT-4 3.08 µM | NCI-H226 21.9 µM | NCI-H460 20.3 µM | OVCAR-4 17.3 µM | OVCAR-5 18.2 µM | SK-MEL-2 18.6 µM | SNB-75 20 µM | UACC-62 17.9 µM
